Measurements taken from PMC4179164, “Ophiobolin A from Bipolaris oryzae Perturbs Motility and Membrane Integrities of Porcine Sperm and Induces Cell Death on Mammalian Somatic Cell Lines” (Toxins, 2014).
Values after ≈ are worked out from the molar mass of the structure shown.

Key:
boar spermatozoa [1] = settings: ref 4 (alamethicin, trilongin), 5 (acrebol), 6 (enniatin B), cited from earlier work
boar spermatozoa [2] = settings: ref 4 (alamethicin, trilongin), 5 (acrebol), 6 (enniatin B); cited from earlier work
boar spermatozoa [3] = settings: ref 4 (alamethicin, trilongin), 5 (acrebol), 6 (enniatin B); cited from earlier work; remark: listed apart in the source
boar spermatozoa [4] = settings: ref 4 (alamethicin, trilongin), 5 (acrebol), 6 (enniatin B); cited from earlier work; remark: listed apart in the source
boar spermatozoa [5] = settings: ref 4 (alamethicin), 6 (enniatin B); cited from earlier work
[6] = test system: porcine kidney (PK-15) cells; settings: ref 4 (alamethicin, trilongin), 5 (acrebol), 6 (enniatin B); cited from earlier work
boar spermatozoa [7] = assay: Sperm motility inhibition assay (progressive and rapid motility); type: cell-based; settings: 24 h, boar spermatozoa, 24 h exposure at room temperature, read-out: Toxic endpoint EC50, Motility inhibition (24 h)
Method: Furthermore, their physiological characters including their motility are influenced mainly by membrane potentials and ion fluxes. Thus, the change of sperm motility is able to sensitively indicate the substances causing mitochondrial membrane depolarization even at sublethal doses, which is undetectable with other cell lines. Motility of the spermatozoa was judged after exposure of 30 min and 24 h at room temperature with minor modification of a previously described method.
The sperm motility inhibition assay was done as reported by Andersson et al.. Commercial boar semen obtained from Figen Oy Finland extended in MR-A (Kubus, S.A., Madrid, Spain) containing 27 × 10^6 spermatozoa·mL^−1 was used. The purified OPA was diluted by serial dilutions in methanol obtaining two ranges of concentrations with 4-4 levels from 2500 μg mL^−1 to 250.0 μg mL^−1 and from 50 μg mL^−1 to 5.0 μg mL^−1, for short and long time exposures, respectively. Twenty μL of each dilution was administered to 2 mL of MR-A-diluted boar semen resulting approximately 100 times dilution of the original stock solutions; 20 μL of methanol was added to spermatozoa in the same way as a blank assay. The samples were incubated for 30 min and 24 h at room temperature for short and long term exposure assays, respectively. After exposure, motility was induced in the sperm cells by incubation in 37 °C for 5 min and shaking to provide the sperm cells with oxygen. […]
The above described subjective motility assay was calibrated with an automatic Hamilton Thorne sperm motility analyzer (HTM-S, ver. 7.2; Hamilton-Thorn Research, Danvers, MA, USA). […] Thus the protocol for assessing sperm tail beating as a measure of motility inhibition gave 99% similarity to measurements of the proportion of rapidly motile spermatozoa done with Hamilton Thorne sperm analyzer (HTM-S, ver. 7.2; Hamilton-Thorn Research, Danvers, MA, USA) Toxicity was expressed as the endpoint concentration of the OPA solution, where the progressive and rapid motility of the sperm cells were <50% of the vehicle exposed sperm cells. […]

boar spermatozoa [8] = assay: Cell membrane permeability assay on motile sperm cells (PI staining); type: cell-based; settings: boar spermatozoa, motile at 37 °C, 2 h; read-out: Toxic endpoint EC50, Permeability to PI on motile cells
Method: To test the effect of OPA exposure on sperm cells in physiological conditions (swimming at 37 °C) the plasma membrane disruption on motile sperm cells was measured with the viability PI stain, where the loss of plasma membrane integrity was detected as appearance of red color stained nuclei in the damaged cells. In this assay, sperm cells were exposed to OPA at 37 °C and motility of the exposed sperm cells was induced and maintained for 2 h.
Cell membrane permeability assay on motile sperm cells was inspected by staining with PI (Molecular Probes, Eugene, OR, USA) in sperm cells induced to swim by shaking at 37 °C. One hundred and fifty μL aliquots of commercial extended boar semen with a density of 27 × 10^6 sperms mL^−1 were pipetted into microtiter plate wells and serially diluted methanolic solution of OPA were added in the concentration range of 200 ng mL^−1 to 4 μg mL^−1 including 6 levels and an additional methanol blank, and pre-incubated for 2 h on orbital shaker (Innova 5000 new Brunswick Scientific, Enfield, CT, USA) (160 rpm) at 37 °C. Four parallel measurements were done for each dilution. One ml PI solution (1 mg mL^−1 in Dulbeco’s phosphate buffered saline) was mixed with 3 mL of […] Dulbeco’s phosphate buffered saline. One hundred and fifty μL of this stain mixture was added to 150 μL of exposed boar semen. This suspension was incubated for 15 min at 37 °C in dark and measured using a microplate reader (Fluoroskan Ascent, Thermo Scientific, Vantaa, Finland) at excitation and emission wavelengths of 544 nm and 600 nm, respectively. For observing plasma membrane damage by PI staining frozen-thawed semen was used as a positive control (for mortality of 100%) representing the maximal fluorescence emitted by the cells permeable to PI and Dulbeco’s phosphate buffered saline was applied as background control (blank). Loss of viability in the sample was calculated as described in Alm et al.. The frozen sample represented 100% loss of viability. The assay was calibrated with triclosan (Sigma Chemical Co., St. Louis, MO, USA), in 5 parallel tests, the EC50 was 2 μg mL^−1 (SD ± 0.6). Cell membrane permeability assay on static sperm cells at room temperature was carried out by viability staining with PI and calcein-AM (Molecular Probes, Eugene, OR, USA) according to Hoornstra et al. in same concentration range and levels described above.

[9] = Mammalian somatic cell toxicity assay calibration (cell line not stated); type: cell-based; settings: 10 parallel tests, SD ± 3.4, cell line not stated
Method: Cytotoxicity against somatic cells was tested with feline fetus lung cells (FFL) cultivated as described by Andersson et al. and murine neuroblastoma cells (MNA) as described by Kulonen et al. as well as porcine kidney tubular epithelial cell line (PK-15), cultured as reported earlier. All somatic cell lines were maintained in an atmosphere of 95% air, 5% CO2 and 95% relative humidity at 37 °C on RPMI 1640 (complete medium) in a cell culture cabinet (Heracell 150i; Thermo Fisher Scientific, Vantaa, Finland). The detached cells were seeded onto 96 well microtiter plates and exposed to the purified OPA, the final concentration of which ranged from 48.8 ng mL^−1 to 25 μg mL^−1 containing 10 levels in methanol. After incubating the plates for one day at 37 °C, inhibition of cell proliferation was inspected in phase contrast microscope. EC100 for inhibition of proliferation was easy to observe as absence of cell monolayer and absence of intact cells in the well. EC0 was also easy to observe as an intact cell monolayer indistinguishable from the control. In microscope the determining of EC50 was more difficult. […] Then, the plates were analyzed by a microtiter plate reader (Fluoroskan Ascent, Thermo Scientific, Vantaa, Finland) at the excitation and emission wavelengths of 544 nm and 590 nm, respectively. […]

| Molecule | Toxic endpoint EC50, Motility inhibition (30 min) (boar spermatozoa [1]) | Toxic endpoint EC50, Motility inhibition (24 h) (boar spermatozoa [1]) | Toxic endpoint EC50, Shivering tail beating induction (boar spermatozoa [2]) | Toxic endpoint EC50, Dissipation of ΔΨm (boar spermatozoa [3]) | Toxic endpoint EC50, Permeability to PI on static cells (boar spermatozoa [4]) | Toxic endpoint EC50, Permeability to PI on motile cells (boar spermatozoa [5]) | Toxic endpoint EC50, Cytotoxicity, PK-15 cells [6] | EC50 (boar spermatozoa [7]) | EC50 (boar spermatozoa [8]) | EC50 at 3 days [9] |
| --- | --- | --- | --- | --- | --- | --- | --- | --- | --- | --- |
| CC(C)[C@H]1C(=O)O[C@H](C(C)C)C(=O)N(C)[C@@H](C(C)C)C(=O)O[C@H](C(C)C)C(=O)N(C)[C@@H](C(C)C)C(=O)O[C@H](C(C)C)C(=O)N1C [Enniatin B] | >10 µg/mL | 5 µg/mL | None | 5 µg/mL | >50 µg/mL | >20 µg/mL | 60 µg/mL |  |  |  |
| Oc1cc(Cl)ccc1Oc1ccc(Cl)cc1Cl [triclosan] |  |  |  |  |  |  |  | 1 µg/mL (≈ 3.45 µM) | 2 µg/mL (≈ 6.91 µM) | 9.4 µg/mL (≈ 32.5 µM) |
| Acrebol | 2 µg/mL | 0.1 µg/mL | None | 0.8 µg/mL | >4 µg/mL |  | ≥10 µg/mL |  |  |  |
| Alamethicin | 1 µg/mL | 0.2 µg/mL | None | 0.2 µg/mL | 0.2 µg/mL | ≤0.5 µg/mL | 8 µg/mL |  |  |  |
